Data set [1] has as its target T1, human DGAT1 (Homo sapiens, UniProt O75907).
T1 construct: made in house; host or cells: insect cells (sf9, sf21 or High Five) infected with baculovirus; total cell membranes
T1 sequence (O75907 1-488): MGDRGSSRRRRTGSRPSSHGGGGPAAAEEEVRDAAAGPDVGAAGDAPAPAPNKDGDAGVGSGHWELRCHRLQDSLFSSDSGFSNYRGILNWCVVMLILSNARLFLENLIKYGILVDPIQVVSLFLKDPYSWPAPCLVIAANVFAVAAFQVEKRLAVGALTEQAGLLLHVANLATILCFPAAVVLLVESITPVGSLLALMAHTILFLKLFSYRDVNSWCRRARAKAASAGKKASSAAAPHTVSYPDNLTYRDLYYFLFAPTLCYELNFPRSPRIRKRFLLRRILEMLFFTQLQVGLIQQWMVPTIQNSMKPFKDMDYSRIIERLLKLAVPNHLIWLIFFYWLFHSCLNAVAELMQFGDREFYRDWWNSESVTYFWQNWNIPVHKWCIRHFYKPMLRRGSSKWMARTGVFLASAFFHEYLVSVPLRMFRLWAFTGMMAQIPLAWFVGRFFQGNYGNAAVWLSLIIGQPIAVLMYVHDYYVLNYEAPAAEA
The data set is described as follows: DGAT Scintillation Proximity Assay (SPA) with membranes of insect cells expressing human flagtag DGAT1. It is filed as biochemical. The note with it: read-out: hDGAT1 IC50. An outline of the steps:
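Membranes (0.2 μg/well) from insect cells expressing human flag-tagged DGAT1 incubated with 10 μM compound and 200 μM dioleoyl glycerol substrate; mercuric chloride as inhibition control. Reaction stopped with WGA SPA beads in mercuric chloride, overnight bead coupling, then scintillation proximity signal read.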
On the technique in general: Scintillation proximity formats need no separation of bound from free tracer.

As usually defined, the IC50 is the concentration that inhibits the measured activity by half. For orientation: melting point means the temperature of the solid-liquid transition.

In turn, `CC1(C)Oc2ncnc(N)c2N=C1c1ccc([C@H]2CC[C@H](Cc3cc(O)on3)CC2)cc1` [Example 2-60] showed a melting point of 173 to 175 °C. The IC50 in data set [1] was 10 to 100 nM.
Turning to `CC1(C)Oc2ncnc(N)c2N=C1c1ccc([C@H]2CC[C@H](CNC(=O)OCc3ccccc3)CC2)cc1` [Example 2-61], the melting point is 159 to 162 °C. Besides, the IC50 in data set [1] lay within 10 to 100 nM.
In turn, `CC1(C)Oc2ncnc(N)c2N=C1c1ccc([C@H]2CC[C@H](OCC(=O)O)CC2)cc1` [Example 2-62] yielded a melting point greater than 230 °C. In data set [1], the IC50 lay within 10 to 100 nM.
In the case of `CC1(C)Oc2ncnc(N)c2N=C1c1ccc([C@H]2CC[C@H](CC3SC(=O)NC3=O)CC2)cc1` (stereo partly drawn) [Example 2-64], the melting point was greater than 230 °C. Also, the half-inhibitory concentration (IC50) in data set [1] lay in the range of 10 to 100 nM.
Taken in the same sequence, the figures for `CC(C)(NC(=O)C[C@H]1CC[C@H](c2ccc(C3=Nc4c(N)ncnc4OC3(C)C)cc2)CC1)C(=O)O` [Example 2-65] were 243 to 244 °C and less than 10 nM.
Taken in the same sequence, the figures for `CC1(C)Oc2ncnc(N)c2N=C1c1ccc2c(c1)CCCC2` [Example 2-66] were 176 to 177 °C and greater than 100 nM.
With `CC1(C)Oc2ncnc(N)c2N=C1c1ccc(C2(C)CCC(CC(=O)O)CC2)cc1` (stereo not drawn) [Example 2-67], the melting point was greater than 250 °C. Besides, the half-maximal inhibitory concentration (IC50) in data set [1] was in the range of 10 to 100 nM.
As to `CC1(C)Oc2ncnc(N)c2N=C1c1ccc2c(c1)C(CC(=O)O)CCC2` (stereo not drawn) [Example 2-68], the melting point is greater than 250 °C. The 50% inhibitory concentration (IC50) in data set [1] is greater than 100 nM.
`CC(C(=O)O)[C@H]1CC[C@H](c2ccc(C3=Nc4c(N)ncnc4OC3(C)C)cc2)CC1` (stereo partly drawn) [Example 2-69] came in with a melting point greater than 250 °C. Moreover, in data set [1], the 50% inhibitory concentration (IC50) is less than 10 nM.
`CC1(C)Oc2ncnc(N)c2N=C1c1ccc([C@H]2CC[C@H](CN3CC(=O)NC3=O)CC2)cc1` [Example 2-70] showed a melting point of 212 to 214 °C. Besides, the IC50 in data set [1] was 10 to 100 nM.
In turn, `CC1(C)Oc2ncnc(N)c2N=C1c1ccc2c(c1)CC(C(=O)O)C2` (stereo not drawn) [Example 2-71] yielded a melting point greater than 250 °C. Also, the IC50 in data set [1] is greater than 100 nM.
Taken in the same sequence, the figures for `CC1(C)Oc2ncnc(N)c2N=C1c1ccc2c(c1)CC(CC(=O)O)C2` (stereo not drawn) [Example 2-72] were greater than 250 °C and 10 to 100 nM.
`CC(C)(NC(=O)C[C@H]1CC[C@H](c2ccc(C3Nc4c(N)ncnc4OC3(C)C)cc2)CC1)C(=O)O` (stereo partly drawn) [Example 2-73] yielded a melting point greater than 250 °C. Besides, the concentration for half-maximal inhibition (IC50) in data set [1] was in the range of 10 to 100 nM.
`CC1(C)Oc2ncnc(N)c2NC1(C)c1ccc(C2CCCCC2)cc1` (stereo not drawn) [Example 2-75]: the melting point was in the range of 244 to 245 °C. The IC50 in data set [1] is greater than 100 nM.
`CC1(C)Oc2ncnc(N)c2NC1c1ccc([C@H]2CC[C@H](Cc3nn[nH]n3)CC2)cc1` (stereo partly drawn) [Example 2-76]: the melting point is greater than 250 °C. For the same compound, the 50% inhibitory concentration (IC50) in data set [1] was 10 to 100 nM.
In turn, `CC1(C)Oc2ncnc(N)c2N=C1c1ccc([C@H]2CC[C@H](CC(=O)N3CCC(O)CC3)CC2)cc1` [Example 2-77] showed a melting point of 137 to 139 °C. The IC50 in data set [1] fell in the range of 10 to 100 nM.
For the compound `CC(C)(O)C[C@H]1CC[C@H](c2ccc(C3=Nc4c(N)ncnc4OC3(C)C)cc2)CC1` [Example 2-78], the melting point lay in the range of 185 to 187 °C. Moreover, the IC50 in data set [1] was in the range of 10 to 100 nM.
Compound `CC1(C)Oc2ncnc(N)c2N=C1c1ccc([C@H]2CC[C@H](CCO)CC2)cc1` [Example 2-79] returned a melting point of 207 to 208 °C. The half-inhibitory concentration (IC50) in data set [1] was 10 to 100 nM.
Regarding `CC1(C)Oc2ncnc(N)c2N=C1c1ccc([C@H]2CC[C@H](CC(O)C(F)(F)F)CC2)cc1` (stereo partly drawn) [Example 2-80], the melting point lay within 271 to 272 °C. The IC50 in data set [1] lay within 10 to 100 nM.
`CC1(C)Oc2ncnc(N)c2N=C1c1ccc([C@H]2CC[C@H](CCN3CCCCC3)CC2)cc1` [Example 2-82] registered a melting point of 209 to 210 °C. In addition, the IC50 in data set [1] is greater than 100 nM.
The matching figures for `CC1(C)Oc2ncnc(N)c2N=C1c1ccc([C@H]2CC[C@H](CCN3CCCC3)CC2)cc1` [Example 2-83]: 142 to 143 °C and greater than 100 nM.
The matching figures for `CC1(C)Oc2ncnc(N)c2N=C1c1ccc([C@H]2CC[C@H](CCN3CCC(O)CC3)CC2)cc1` [Example 2-84]: 217 to 218 °C and greater than 100 nM.
The compound `CC1(C)Oc2ncnc(N)c2N=C1c1ccc([C@H]2CC[C@H](CCN3CCC(O)(c4ccccc4)CC3)CC2)cc1` [Example 2-85] registered a melting point of 115 to 116 °C. The half-inhibitory concentration (IC50) in data set [1] was greater than 100 nM.
On to `CC1(C)Oc2ncnc(N)c2N=C1c1ccc([C@H]2CC[C@H](CCN3CCC(Cc4ccccc4)CC3)CC2)cc1` [Example 2-86], for which the melting point lay in the range of 190 to 191 °C. The 50% inhibitory concentration (IC50) in data set [1] is greater than 100 nM.
`CC1(C)Oc2ncnc(N)c2N=C1c1ccc([C@H]2CC[C@H](CCN3CCC(CCO)CC3)CC2)cc1` [Example 2-87] showed a melting point of 221 to 222 °C. Moreover, the IC50 in data set [1] was greater than 100 nM.
Taken in the same sequence, the figures for `CC1(C)Oc2ncnc(N)c2N=C1c1ccc([C@H]2CC[C@H](CCN3CCN(Cc4ccccc4)CC3)CC2)cc1` [Example 2-88] were 175 to 176 °C and greater than 100 nM.
`CN1CCN(C(=O)C[C@H]2CC[C@H](c3ccc(C4=Nc5c(N)ncnc5OC4(C)C)cc3)CC2)CC1` [Example 2-92] displayed a melting point of 113 to 115 °C. Besides, the IC50 in data set [1] lay in the range of 10 to 100 nM.
With `CC1(C)Oc2ncnc(N)c2N=C1c1ccc([C@H]2CC[C@H](CC(=O)N3CCCCC3)CC2)cc1` [Example 2-93], the melting point lay in the range of 146 to 147 °C. The half-inhibitory concentration (IC50) in data set [1] was in the range of 10 to 100 nM.
`CC1(C)Oc2ncnc(N)c2N=C1c1ccc([C@H]2CC[C@H](CC(=O)N3CCCC3)CC2)cc1` [Example 2-94] returned a melting point of 232 to 233 °C. In data set [1], the IC50 was 10 to 100 nM.
`CC1(C)Oc2ncnc(N)c2N=C1c1ccc([C@H]2CC[C@H](CC(=O)N3CCOCC3)CC2)cc1` [Example 2-95]: the melting point fell in the range of 199 to 200 °C. Further, the IC50 in data set [1] is 10 to 100 nM.
Consider `CC1(C)Oc2ncnc(N)c2N=C1c1ccc([C@H]2CC[C@H](CC(=O)N3CCC(CCO)CC3)CC2)cc1` [Example 2-96], for which the melting point lay within 112 to 113 °C. In data set [1], the half-maximal inhibitory concentration (IC50) is 10 to 100 nM.
For the compound `CC1(C)Oc2ncnc(N)c2N=C1c1ccc([C@H]2CC[C@H](CC(=O)N3CCN(CCO)CC3)CC2)cc1` [Example 2-97], the melting point lay within 225 to 226 °C. Besides, the concentration for half-maximal inhibition (IC50) in data set [1] lay within 10 to 100 nM.
`CC(C)(CO)NC(=O)C[C@H]1CC[C@H](c2ccc(C3=Nc4c(N)ncnc4OC3(C)C)cc2)CC1` [Example 2-98] registered a melting point of 131 to 133 °C. Further, the IC50 in data set [1] was 10 to 100 nM.
`CN(CCO)C(=O)C[C@H]1CC[C@H](c2ccc(C3=Nc4c(N)ncnc4OC3(C)C)cc2)CC1` [Example 2-99] yielded a melting point of 113 to 115 °C. For the same compound, the IC50 in data set [1] was 10 to 100 nM.
Consider `CC1(C)Oc2ncnc(N)c2N=C1c1ccc([C@H]2CC[C@H](CC(=O)N3CCC[C@H]3CO)CC2)cc1` [Example 2-100], for which the melting point lay in the range of 184 to 185 °C. For the same compound, in data set [1], the 50% inhibitory concentration (IC50) lay in the range of 10 to 100 nM.
`CC1(C)Oc2ncnc(N)c2N=C1c1ccc([C@H]2CC[C@H](CC(=O)N3CCC(O)C3)CC2)cc1` (stereo partly drawn) [Example 2-101] had a melting point of 237 to 239 °C. The concentration for half-maximal inhibition (IC50) in data set [1] fell in the range of 10 to 100 nM.
Consider `CCCNC(=O)C[C@H]1CC[C@H](c2ccc(C3=Nc4c(N)ncnc4OC3(C)C)cc2)CC1` [Example 2-102], for which the melting point lay in the range of 214 to 215 °C. Besides, the 50% inhibitory concentration (IC50) in data set [1] was 10 to 100 nM.
As to `CC1(C)Oc2ncnc(N)c2N=C1c1ccc([C@H]2CC[C@H](CC(=O)N3CC[C@@H](O)C3)CC2)cc1` [Example 2-103], the melting point is 231 to 232 °C. Also, the IC50 in data set [1] was in the range of 10 to 100 nM.
In turn, `CN(CC[C@H]1CC[C@H](c2ccc(C3=Nc4c(N)ncnc4OC3(C)C)cc2)CC1)C(=O)CO` [Example 2-104] had a melting point of 186 to 188 °C. Besides, the half-inhibitory concentration (IC50) in data set [1] lay within 10 to 100 nM.
`CN(C(=O)CO)[C@H]1CC[C@H](c2ccc(C3=Nc4c(N)ncnc4OC3(C)C)cc2)CC1` [Example 2-105] came in with a melting point greater than 250 °C. Further, in data set [1], the IC50 fell in the range of 10 to 100 nM.
Taken in the same sequence, the figures for `CC1(C)Oc2ncnc(N)c2N=C1c1ccc([C@H]2CC[C@H](CC(=O)N3C[C@@H](O)[C@@H](O)C3)CC2)cc1` [Example 2-106] were 250 to 252 °C and 10 to 100 nM.
Turning to `CC1(C)Oc2ncnc(N)c2N=C1c1ccc([C@H]2CC[C@H](Cn3ccnc3)CC2)cc1` [Example 2-108], the melting point fell in the range of 202 to 203 °C. Moreover, the half-maximal inhibitory concentration (IC50) in data set [1] lay within 10 to 100 nM.
The compound `CC1(C)Oc2ncnc(N)c2N=C1c1ccc([C@H]2CC[C@H](Cc3nc4ccccc4[nH]3)CC2)cc1` [Example 2-109] yielded a melting point greater than 230 °C. In addition, the IC50 in data set [1] lay within 10 to 100 nM.
Taken in the same sequence, the figures for `CC1(C)Oc2ncnc(N)c2N=C1c1ccc([C@H]2CC[C@H](CC(=O)CO)CC2)cc1` [Example 2-110] were 155 to 156 °C and 10 to 100 nM.
As for `CC1(C)Oc2ncnc(N)c2N=C1c1ccc([C@H]2CC[C@H](CC(=O)N3CCNCC3)CC2)cc1.Cl.Cl` [Example 2-111], the melting point is greater than 250 °C. The IC50 in data set [1] is 10 to 100 nM.

These data come from patent US7244727B2, “Fused bicyclic nitrogen-containing heterocycles” (Japan Tobacco Inc., priority 2002, dated 2007).
